Test results published in patent publication US10501460B2, “Heterocyclic compounds and uses thereof” (Plexxikon Inc., priority 2013, dated 2019).

Assays:
BRD4-BD1 (44-164) = target: T1, BRD4-BD1 (44-164) (Homo sapiens, UniProt O60885); experiment: Alphascreen binding assay BRD4-BD1 (BRD4 biochemical inhibitory activity); settings: read-out: Biochemical activity (IC50 μM) BRD4(1) H4
T1 construct: BRD4-BD1 (44-164); made in house; host or cells: E. coli BL21-CodonPlus (DE3)
Method: Binding of compounds of formula (I) with bromodomain 2, 3 4 was assessed using Alphascreen binding assay. The inhibition of the interaction between bromodomain and its acetylated target protein (Filippakopoulos P et al. 2012) was measured quantitatively using recombinant BRD proteins, an acetylated Histone 4 peptide and AlphaScreen™ technology. In absence of inhibition the BRD protein bound to AlphaScreen™ nickel chelate acceptor beads can interact with the acetylated Histone 4 peptide which is immobilized by the AlphaScreen™ Streptavidin coated beads. This interaction brings donor and acceptor beads in proximity. The close proximity allows the singlet oxygen produced by laser excitation of the donor beads to reach the acceptor beads and generate a luminescence signal. BRD inhibitors result in a decrease in the proximity signal through an inhibition of the BRD—acetylated peptide interaction.
Recombinant human bromodomains containing the N-terminal bromodomain (BRD2-BD1 (71-194), BRD3-BD1 (24-144) and BRD4-BD1 (44-164)) or dual bromodomains (BRD4-BD12 (1-477), BRD4-BD12 (1-472)) were prepared and purified as described in protein expression and purification session. The peptide is human Histone H41-21K5AcK8AcK12AcK16Ac-Biotin (Anaspec Calif., USA).
Protocol for BRD2, BRD3 and BRD4 assay: All components are prepared in buffer composed of 50 mM HEPES pH 7.5, 100 mM NaCl, 0.01% bovine serum albumin (“BSA”), 0.01% Triton X-100, 2 mM dithiothreitol (“DTT”). 7 μL of Bromodomain protein and 7 μL of peptide are added to wells containing 1 μL of various concentrations of test compounds of formula (I) or DMSO vehicle in an Alphaplate (PerkinElmer Ga., USA) and incubated for 1 hour at room temperature. 4 μL donor and acceptor bead mixture is then added with final concentrations of 7.5 μg/ml. 30 minutes after bead addition, Alpha signal is read on the Envision spectrometer ([…]Ex 680 nm, […]Em 520-620 nm). Final concentrations of bromodomain proteins and peptide are as shown below.
All data was normalized to the mean of 16 high and 16 low control wells on each plate. A four parameter curve fit of the following formula was then applied: Y=a+(b−a)/(1+(x/c)^d) Where ‘a’ is the minimum, ‘b’ is the maximum, ‘c’ is the pIC50 and ‘d’ is the Hill slope. Protein Expression and Purification
Recombinant human bromodomains containing the N-terminal bromodomain (BRD2-BD1 (71-194), BRD3-BD1 (24-144) and BRD4-BD1 (44-164)) or dual bromodomains (BRD4-BD12 (1-477), BRD4-BD12 (1-472)) were expressed in E. coli cells (in a modified pET vector) with an N-terminal six-His tag and purified using a combination of both IMAC (Ni-affinity) and size exclusion chromatography steps.
Recombinant BRD proteins were expressed using the E. coli strain BL21-CodonPlus (DE3) (Agilent Technologies Calif., USA). Cells were grown in Terrific Broth (TB) media to an OD600 of 1.2 at 37° C. at which temperature was reduced to 25° C., protein was induced with 1.0 mM ispropyl-β-D-thiogalactopyranoside (“IPTG”) for 12-18 hours and harvested by centrifugation at 8000×g for 20 minutes. Cells were re-suspended in 0.1M K2PO4 pH 8.0, 250 mM NaCl, 10% Glycerol, 0.75% NP-40, 25 mM Imidazole, 5 mM beta-mercaptoethanol (“BME”) with 0.2 mg/ml Lysosyme, 2.0 mM phenylmethanesulfonyl fluoride (“PMSF”), 25 μg/ml DNAse I, incubated on ice for 30 minutes and lyzed with a cell disruptor (MicroFluidics Mass., USA). The lysate was clarified by centrifugation at 20,000×g for 2 hours. The protein was captured with Ni-NTA resin (Life Technologies, USA). Contaminating proteins were washed off with 25 mM Tris-HCl pH 8.3, 250 mM NaCl, 12% Glycerol and 50 mM Imidazole. Following 3× wash steps, protein was eluted step wise using a 50 mM HEPES pH 7.5, 500 mM NaCl and 400 mM Imidazole. The protein was further purified using Gel Filtration column 26/600 Superdex 200 (GE Biosciences NJ, USA) in 50 mM HEPES pH 7.5, 250 mM NaCl. The protein was aliquoted and flash-frozen in liquid Nitrogen. […]

MV-4-11 = experiment: Oncology cell growth assay MV-4-11 (CellTiter Glo, 72 hours); format: cell-based; settings: Homo sapiens, MV4-11, 72 h; MV-4-11 cell growth inhibitory activity, 3d
Summary of the method: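 MV-4-11 cells (MLL-AF4 AML) exposed 72 h to 8-point 1:3 titration, top final 10 μM, 0.2% DMSO. CellTiter Glo luminescence as cell-number readout, normalized to DMSO controls; pIC50 from four-parameter fit.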

bromodomain = experiment: Bromodomain cell assays of Example 40 (at least one of them); format: cell-based; settings: in at least one of the bromodomain cell assays described in Example 40
Summary of the method: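 Growth inhibition: 3000 MV-4-11, MOLM-13, MM.1S or neuroblastoma cells/well got an 8-point 1:3 series from 10 μM top (0.2% DMSO) for 72 h, then CellTiter-Glo luminescence. Myc reporter: MV-4-11 with E-box firefly luciferase, 24 h exposure, One-Glo luminescence plus CellTiter-Fluo cell count. pIC50 from four-parameter fit.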

| Structure (SMILES) | IC50 (BRD4-BD1 (44-164)) | IC50 (MV-4-11) | IC50 (bromodomain) |
| --- | --- | --- | --- |
| Cc1noc(C)c1-c1cnc2ccn(S(=O)(=O)c3cccc(Cl)c3)c2c1 [P-0057, 4-[1-(3-chlorophenyl)sulfonylpyrrolo[3,2-b]pyridin-6-yl]-3,5-dimethyl-isoxazole] | 1 to 10 µM | ≤ 1 µM | < 10 µM |
| Cc1cc(-c2cn(S(=O)(=O)c3ccccc3)c3cc(-c4c(C)noc4C)cnc23)[nH]n1 [P-0164, 4-[1-(benzenesulfonyl)-3-(3-methyl-1H-pyrazol-5-yl)pyrrolo[3,2-b]pyridin-6-yl]-3,5-dimethyl-isoxazole] | ≤ 1 µM | ≤ 1 µM | < 10 µM |
| Cc1noc(C)c1-c1cnc2ccn(S(=O)(=O)c3cccc(F)c3)c2c1 [P-0056, 4-[1-(3-fluorophenyl)sulfonylpyrrolo[3,2-b]pyridin-6-yl]-3,5-dimethyl-isoxazole] | 1 to 10 µM | 1 to 10 µM | < 10 µM |
| CCc1cc2cc(-c3c(C)noc3C)cnc2[nH]1 [P-0035, 4-(2-ethyl-1H-pyrrolo[2,3-b]pyridin-5-yl)-3,5-dimethyl-isoxazole] | 1 to 10 µM | 1 to 10 µM | < 10 µM |
| Cc1noc(C)c1-c1cnc2c(c1)c(Sc1ccccc1)cn2C1CCOCC1 [P-0182, 3,5-dimethyl-4-(3-phenylsulfanyl-1-tetrahydropyran-4-yl-pyrrolo[2,3-b]pyridin-5-yl)isoxazole] | 1 to 10 µM | ≤ 1 µM | < 10 µM |
| Cc1noc(C)c1-c1cnc2ccn(S(=O)(=O)c3cccc(OC(F)F)c3)c2c1 [P-0061, 4-[1-[3-(difluoromethoxy)phenyl]sulfonylpyrrolo [3,2-b]pyridin-6-yl]-3,5-dimethyl-isoxazole] | 1 to 10 µM | 1 to 10 µM | < 10 µM |
| Cc1noc(C)c1-c1cnc2c(c1)c(S(=O)(=O)c1ccccc1)cn2C1CCOC1 (stereo not drawn) [P-0181, 4-[3-(benzenesulfonyl)-1-tetrahydrofuran-3-yl-pyrrolo[2,3-b]pyridin-5-yl]-3,5-dimethyl-isoxazole] | 1 to 10 µM | ≤ 1 µM | < 10 µM |
| Cc1noc(C)c1-c1cnc2c(CCC(=O)O)cn(S(=O)(=O)c3ccccc3)c2c1 [P-0174, 3-[1-(benzenesulfonyl)-6-(3,5-dimethylisoxazol-4-yl)pyrrolo[3,2-b]pyridin-3-yl]propanoic acid] | 1 to 10 µM | 1 to 10 µM | < 10 µM |
| [2H]C([2H])([2H])n1cc(C(OC)C2CCC(F)(F)CC2)c2cc(-c3c(C)noc3C)cnc21 (stereo not drawn) [P-0080, 4-[3-[(4,4-difluorocyclohexyl)-methoxy-methyl]-1-(trideuteriomethyl)pyrrolo[2,3-b]pyridin-5-yl]-3,5-dimethyl-isoxazole] | ≤ 1 µM | ≤ 1 µM | < 10 µM |
| CCCCC(O)(c1cn(C)c2ncc(-c3c(C)noc3C)cc12)C1CCC(F)(F)CC1 (stereo not drawn) [P-0108, 1-(4,4-difluorocyclohexyl)-1-[5-(3,5-dimethylisoxazol-4-yl)-1-methyl-pyrrolo[2,3-b]pyridin-3-yl]pentan-1-ol] | ≤ 1 µM | ≤ 1 µM | < 10 µM |
| Cc1noc(C)c1-c1cnc2c(C#CCF)cn(S(=O)(=O)c3ccccc3)c2c1 [P-0157, 4-[1-(benzenesulfonyl)-3-(3-fluoroprop-1-ynyl)pyrrolo[3,2-b]pyridin-6-yl]-3,5-dimethyl-isoxazole] | ≤ 1 µM | ≤ 1 µM | < 10 µM |
| Cc1noc(C)c1-c1cnc2ccn(S(=O)(=O)c3ccc(Cl)cc3)c2c1 [P-0053, 4-[1-(4-chlorophenyl)sulfonylpyrrolo[3,2-b]pyridin-6-yl]-3,5-dimethyl-isoxazole] | 1 to 10 µM | 1 to 10 µM | < 10 µM |
| Cc1csc(S(=O)(=O)n2ccc3ncc(-c4c(C)noc4C)cc32)c1 [P-0059, 3,5-dimethyl-4-[1-[(4-methyl-2-thienyl)sulfonyl]pyrrolo[3,2-b]pyridin-6-yl]isoxazole] | 1 to 10 µM | 1 to 10 µM | < 10 µM |
| Cc1nn(C(F)F)cc1S(=O)(=O)n1ccc2ncc(-c3c(C)noc3C)cc21 [P-0058, 4-[1-[1-(difluoromethyl)-3-methyl-pyrazol-4-yl]sulfonylpyrrolo[3,2-b]pyridin-6-yl]-3,5-dimethyl-isoxazole] | 1 to 10 µM | 1 to 10 µM | < 10 µM |
| Cc1noc(C)c1-c1cnc2c(-c3cccnc3)c[nH]c2c1 [P-0083, 3,5-dimethyl-4-[3-(3-pyridyl)-1H-pyrrolo[3,2-b]pyridin-6-yl]isoxazole] | 1 to 10 µM | 1 to 10 µM | < 10 µM |
| Cc1noc(C)c1-c1cnc2[nH]cc(Cc3cccc(OC(F)(F)F)c3)c2c1 [P-0046, 3,5-dimethyl-4-[3-[[3-(trifluoromethoxy)phenyl]methyl]-1H-pyrrolo[2,3-b]pyridin-5-yl]isoxazole] | 1 to 10 µM | 1 to 10 µM | < 10 µM |
| [2H]C([2H])([2H])n1cc(CC2CCC(F)(F)CC2)c2cc(-c3c(C)noc3C)cnc21 [P-0079, 4-[3-[(4,4-difluorocyclohexyl)methyl]-1-(trideuteriomethyl)pyrrolo[2,3-b]pyridin-5-yl]-3,5-dimethyl-isoxazole] | ≤ 1 µM | 1 to 10 µM | < 10 µM |
| Cc1noc(C)c1-c1cnc2c(-c3cnc(C4CC4)nc3)cn(S(=O)(=O)c3ccccc3)c2c1 [P-0102, 4-[1-(benzenesulfonyl)-3-(2-cyclopropylpyrimidin-5-yl)pyrrolo[3,2-b]pyridin-6-yl]-3,5-dimethyl-isoxazole] | 1 to 10 µM | 1 to 10 µM | < 10 µM |
| Cc1noc(C)c1-c1cnc2c(c1)c(C=C1CCS(=O)(=O)CC1)cn2S(=O)(=O)c1ccccc1 [P-0097, 4-[[1-(benzenesulfonyl)-5-(3,5-dimethylisoxazol-4-yl)pyrrolo[2,3-b]pyridin-3-yl]methylene]thiane 1,1-dioxide] | 1 to 10 µM | 1 to 10 µM | < 10 µM |
| Cc1noc(C)c1-c1cnc2[nH]cc(C(O)c3ccc(C(F)(F)F)nc3)c2c1 (stereo not drawn) [P-0023, [5-(3,5-dimethylisoxazol-4-yl)-1H-pyrrolo[2,3-b]pyridin-3-yl]-[6-(trifluoromethyl)-3-pyridyl]methanol] | 1 to 10 µM | 1 to 10 µM | < 10 µM |
| Cc1noc(C)c1-c1cnc2[nH]cc(C=C3CCS(=O)(=O)CC3)c2c1 [P-0099, 4-[[5-(3,5-dimethylisoxazol-4-yl)-1H-pyrrolo[2,3-b]pyridin-3-yl]methylene]thiane 1,1-dioxide] | 1 to 10 µM | 1 to 10 µM | < 10 µM |
